The values below come from US20070111889A1, “6-(Aminocarbonyl-phenyl)triazolopyrimidines, methods for the production thereof, use thereof for controlling harmful fungi, and substances containing the same” (BASF Aktiengesellschaft, priority 2003, published 2007).

One assay relates to Plasmopara viticola. The assay can be described thus: Activity against Peronospora of vines caused by Plasmopara viticola (protective spray, potted vines). As to conditions: 250 ppm; vines cultivar Riesling; inoculated the day after spraying; assessed visually; untreated plants 90% infected. It counts as in vivo. The procedure: The active compounds were prepared as a stock solution with 0.25% by weight of active compound in acetone or DMSO. 1% by weight of the emulsifier Uniperol® EL (wetting agent having emulsifying and dispersing action based on ethoxylated alkylphenols) was added to this solution, and the mixture was diluted with water to the desired concentration.
Leaves of potted vines of the cultivar “Riesling” were sprayed to runoff point with an aqueous suspension having the concentration of active compounds stated below. The next day, the undersides of the leaves were inoculated with an aqueous zoospore suspension of Plasmopara viticola. The vines were then initially placed in a water-vapor-saturated chamber at 24° C. for 48 hours and then in a greenhouse at temperatures of between 20 and 30° C. for 5 days. After this time, the plants were again placed in a moist chamber for 16 hours to promote sporangiophore eruption. The extent of the development of the infection on the undersides of the leaves was then determined visually.

In another assay the test system is Pyrenophora teres. The assay can be described thus: Activity against net blotch of barley caused by Pyrenophora teres (protective spray, barley seedlings). It is filed as in vivo, Pyrenophora [syn. Drechslera] teres. As to conditions: 63 ppm; barley cultivar Hanna; inoculated 24 h after spraying; assessed visually after 6 days; untreated plants 90% infected. The procedure:
The active compounds were prepared as a stock solution with 0.25% by weight of active compound in acetone or DMSO. 1% by weight of the emulsifier Uniperol® EL (wetting agent having emulsifying and dispersing action based on ethoxylated alkylphenols) was added to this solution, and the mixture was diluted with water to the desired concentration. Leaves of pot-grown barley seedlings of the cultivar “Hanna” were sprayed to runoff point with an aqueous suspensiori having the concentration of active compound stated below. 24 hours after the spray coating had dried on, the test plants were inoculated with an aqueous spore suspension of Pyrenophora [syn. Drechslera] teres, the causative agent of net blotch. The test plants were subsequently placed in a greenhouse at temperatures of between 20 and 24° C. and at a relative atmospheric humidity of 95 to 100%. After 6 days, the extent of the development of the disease was determined visually in % of infection of the total leaf area.

Molecules are shown by their SMILES.

As to `CC1CCN(c2c(-c3c(F)cc(C(N)=O)cc3F)c(Cl)nc3ncnn23)CC1` [I-1, 5-chloro-6-(2,6-difluoro-4-aminocarbonylphenyl)-7-(4-methylpiperidin-1-yl)-[1,2,4]-triazolo[1,5-a]pyrimidine], in the assay on Plasmopara viticola, the “infection on the undersides of the leaves” value is “no infection”. Besides, the “infection (% of infection of the total leaf area)” value with Pyrenophora teres is given as “about 3%”.
